Reference: article PMC7591920, “A protein tertiary structure mimetic modulator of the Hippo signalling pathway” (Nature Communications, 2020)
Bridge positions count the residues as written; N and C are the ends. Peptide text beside a SMILES is read from it.

Tests used:
mTEAD4 [1] = molecular target: T1, mTEAD4 (Mus musculus, UniProt Q62296); experiment: SPR binding to immobilised mTEAD4; conditions: mTEAD4 amine-coupled on CM5, multi-cycle, steady-state fit 1:1 model, 10 mM HEPES 150 mM NaCl 0.05% Tween-20 pH 7.4, 0.3% DMSO, 20 °C, Fig. 1 values n = 1 replicate
T1 construct: Mouse TEAD4(210–427) cDNA fused with a 6x His-tag and a 3C protease cleavage site; 6x His-tag; 3C protease cleavage site; made in house; host or cells: E. coli BL21 DE3 RIL(K+)
T1 sequence (Q62296 210-427): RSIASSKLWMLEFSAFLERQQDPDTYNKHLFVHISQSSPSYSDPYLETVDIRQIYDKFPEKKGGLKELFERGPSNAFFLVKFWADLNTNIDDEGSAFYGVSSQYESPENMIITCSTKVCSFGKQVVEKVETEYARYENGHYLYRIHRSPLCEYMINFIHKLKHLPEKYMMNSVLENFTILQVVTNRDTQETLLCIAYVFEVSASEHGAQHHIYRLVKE
Protocol: (§1) Sensor chips Series S CM5 (Research grade) were obtained from GE Healthcare. Prior to use, the sensor chips were equilibrated at room temperature for 15 min to prevent water condensation on the detector side of the sensor chip surface. A running buffer was prepared composed of 10 mM HEPES, 150 mM NaCl, and 0.05% (w/v) Tween-20, pH 7.4, and the system was equilibrated at 20 °C using a flow rate of 30 µL min^−1 after docking of the sensor chip. Ligand binding experiments have been performed applying the concept of multi-cycle kinetics. A contact time of 45 s was selected, followed by a 6-min dissociation phase to allow for complete dissociation of the analyte prior to the next cycle. […] Typically, seven concentrations of the analytes have been examined applying a threefold dilution pattern with 30 µM as top concentration. For the analysis, five running buffer blanks were injected to equilibrate the instrument. […] The carboxyl-dextran surface was activated for 7 min with 0.05 M NHS and 0.2 M EDC, followed by an injection of the proteins in 10 mM MES pH 6.4 at a concentration of 30–50 µg mL^−1. […] This was followed by a deactivation of the residual esters by injecting a solution of 0.5 M ethanolamine pH 8.0 for 7 min before engaging in ligand binding experiments. Reference surfaces were prepared accordingly, omitting the injection of protein over the activated reference surface.

GST-hTEAD1 = molecular target: T2, GST-hTEAD1 (Homo sapiens, UniProt P28347); experiment: SPR binding to immobilised GST-hTEAD1; conditions: GST-hTEAD1 amine-coupled on CM5, multi-cycle, steady-state fit 1:1 model, 10 mM HEPES 150 mM NaCl 0.05% Tween-20 pH 7.4, 0.3% DMSO, 20 °C, Fig. 1 values n = 1 replicate
T2 construct: CDNA of hTEAD1(209–426) fused with an N-terminal GST tag; made in house; host or cells: Escherichia coli BL21 DE3 RIL(K+)
T2 sequence (P28347 209-426): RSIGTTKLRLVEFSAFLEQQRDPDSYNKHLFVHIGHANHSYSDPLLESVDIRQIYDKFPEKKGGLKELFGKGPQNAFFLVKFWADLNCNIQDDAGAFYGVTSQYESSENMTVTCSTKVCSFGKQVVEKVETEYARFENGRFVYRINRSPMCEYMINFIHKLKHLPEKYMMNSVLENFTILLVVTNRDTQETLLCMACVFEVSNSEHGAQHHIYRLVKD
Protocol: as §1

hTEAD1 = molecular target: T3, hTEAD1 (Homo sapiens, UniProt P28347); experiment: Direct fluorescence polarization with hTEAD1; type: binding; conditions: direct FP, fluorescent cofactor 10 nM titrated with hTEAD1, 1 h; triplicates; read-out: FP hTEAD1 Kd of FITC labelled cofactor
T3 construct: CDNA of hTEAD1(209–426) fused with an N-terminal GST tag; GST (N); 6x His-tag (N); 3C protease cleavage site (N); made in house; host or cells: Escherichia coli BL21 DE3 RIL(K+)
T3 sequence (P28347 209-426): as above
Protocol: Supplementary Figure 15│ Binding studies of hTEAD1 by fluorescence polarization. Dissociation constants were measured […]
The fluorescent cofactor (10 nM) are directly titrated with hTEAD1. After 1 hour of incubation, fluorescence polarization was measured, and a non-linear fitting was applied to the curves to determine the […]
In the competitive binding assay, first a complex with the fluorescent cofactor (10 nM) and hTEAD1 (100 nM) was formed and after 1 hour of incubation, the unlabelled peptide was titrated. After 1 hour of incubation, fluorescence polarization was measured, and a non-linear fitting was applied to the curves to determine the half maximal inhibitory concentration. (c) Competition assay […]
Mean ± SEM of triplicates were plotted for all data. Source data are provided as a Source Data file.
(1 picture or pasted object on this page, not shown here)

[2] = Circular dichroism, calculated helicity; type: physicochemical; conditions: 10 mM sodium phosphate pH 7.4, 75 to 10 µM peptide, CDNN software PEPFIT mode, unbound peptide
Protocol: The spectra were obtained using a Jasco J-715 and a cuvette 0.1 mm. Represented CD spectra are an average of five measurements done between λ = 190 and 300 nm with a continuous scan mode, 50 nm min^−1 scan speed and data point every 1 nm. The α-helicity was calculated using CDNN software using the PEPFIT mode[42].

mTEAD4 [3] = molecular target: T1, mTEAD4; experiment: Competition fluorescence polarization with mTEAD4 (alanine scan); type: binding; conditions: Ac-peptide vs FITC-labelled tracer peptide 10 nM, mTEAD4 400 nM, 1 h
Protocol: Competition FP: N-terminally acetylated peptides were diluted 1:1 in a 384-well plate (5 μL, 75 μM−9 pM). Ten microlitres of a mixture (1:1) of mTEAD4 and FITC-labelled peptide was added (final concentrations: acetylated peptides = 50 μM−6 pM; mTEAD4 protein = 400 nM; FITC-labelled tracer peptide = 10 nM). After 1 h, FP was measured (λ(ex) = […]). IC50 was determined from the binding curve with GraphPad from Prism.

Molecule | Kd (mTEAD4 [1]) [µM] | Kd (GST-hTEAD1) [µM] | Kd (hTEAD1) [µM] | Helicity (CD) [2] [%] | IC50 (mTEAD4 [3]) [µM]
CC(=O)N[C@@H](CO)C(=O)N[C@H](C(=O)N[C@@H](CC(=O)O)C(=O)N[C@@H](CC(=O)O)C(=O)N[C@@H](Cc1c[nH]cn1)C(=O)N[C@@H](Cc1ccccc1)C(=O)N[C@@H](C)C(=O)N[C@@H](CCCCN)C(=O)N[C@@H](C)C(=O)N[C@@H](CC(C)C)C(=O)NCC(N)=O)C(C)C [compound 5] (Ac-SVDDHFAKALG-NH2) | > 100 | > 100 | – | < 5 | –
CC[C@H](C)[C@@H]1NC(=O)[C@H](CCC(N)=O)NC(=O)[C@H](CC(C)C)NC(=O)[C@H](Cc2c[nH]c3ccccc23)NC(=O)[C@H]([C@@H](C)O)NC(=O)[C@H](CC(=O)O)NC(=O)CNC(=O)[C@H](CC(C)C)NC(=O)[C@H](C)NC(=O)[C@H](CCCCN)NC(=O)[C@H](C)NC(=O)[C@H](C)NC(=O)[C@H](Cc2c[nH]cn2)NC(=O)[C@H](CC(=O)O)NC(=O)[C@@H](NC(=O)[C@@H](NC(=O)[C@H](CO)NC(C)=O)C(C)C)CCC(=O)NCCCC[C@@H](C(=O)N[C@@H](C)C(=O)N[C@@H](C)C(N)=O)NC1=O [compound 18] (Ac-SVEDHAAKALGDTWLQIKAA-NH2; lactam 3-18) | > 100 | > 100 | – | – | > 50
CC[C@H](C)[C@@H]1NC(=O)[C@H](CCC(N)=O)NC(=O)[C@H](CC(C)C)NC(=O)[C@H](Cc2c[nH]c3ccccc23)NC(=O)[C@H]([C@@H](C)O)NC(=O)[C@H](CC(=O)O)NC(=O)CNC(=O)[C@H](CC(C)C)NC(=O)[C@H](C)NC(=O)[C@H](CCCCN)NC(=O)[C@H](C)NC(=O)[C@H](Cc2ccccc2)NC(=O)[C@H](C)NC(=O)[C@H](CC(=O)O)NC(=O)[C@@H](NC(=O)[C@@H](NC(=O)[C@H](CO)NC(C)=O)C(C)C)CCC(=O)NCCCC[C@@H](C(=O)N[C@@H](C)C(=O)N[C@@H](C)C(N)=O)NC1=O [compound 17] (Ac-SVEDAFAKALGDTWLQIKAA-NH2; lactam 3-18) | > 100 | > 100 | – | – | > 100

Other lines, results leading:

Kd (mTEAD4 [1]) [µM] | Kd (GST-hTEAD1) [µM] | Kd (hTEAD1) [µM] | Helicity (CD) [2] [%] | IC50 (mTEAD4 [3]) [µM] | Molecule
2 | 1.4 | 0.017 ± 0.0025 | – | – | Ac-DPVVEEHFRRSLGKNYKEPEPAPNSVSITGSVDDHFAKALGDTWLQIKAAKDSA-NH2 (N-terminus and C-terminus assumed) [compound 1]
> 100 | > 100 | – | – | > 100 | CC[C@H](C)[C@@H]1NC(=O)[C@H](CCC(N)=O)NC(=O)[C@H](CC(C)C)NC(=O)[C@H](Cc2c[nH]c3ccccc23)NC(=O)[C@H]([C@@H](C)O)NC(=O)[C@H](CC(=O)O)NC(=O)CNC(=O)[C@H](C)NC(=O)[C@H](C)NC(=O)[C@H](CCCCN)NC(=O)[C@H](C)NC(=O)[C@H](Cc2ccccc2)NC(=O)[C@H](Cc2c[nH]cn2)NC(=O)[C@H](CC(=O)O)NC(=O)[C@@H](NC(=O)[C@@H](NC(=O)[C@H](CO)NC(C)=O)C(C)C)CCC(=O)NCCCC[C@@H](C(=O)N[C@@H](C)C(=O)N[C@@H](C)C(N)=O)NC1=O [compound 20] (Ac-SVEDHFAKAAGDTWLQIKAA-NH2; lactam 3-18)
